Assay results reported in patent publication US20130189200A1, “Oral Composition For Removing Tooth Stain” (REGENETISS, INC., priority 2010, published 2013).

Assay: Whitening effect evaluation test (residual ratio of stain on tea-stained dry apatite)
Experimental: 1 to 2 g of hydroxyapatite (Biogel-HTP, Bio-Rad Laboratories, Inc.) was put into a 50 mL tube, and 20 mL of protein solution (1%, IXOS SCP5000, Nitta Gelatin Inc.) was added thereto, and the mixture was left to stand for 10 to 15 minutes, and then the mixture was separated by centrifugation at 3,000×g for 2 minutes to remove a supernatant. Next, after the centrifugation, 20 mL of stain solution (5 g of instant coffee, two tea bags and two green tea bags were put into 110 mL of water, and the mixture was heated by a microwave oven for 2 minutes. Then the mixture was cooled down at room temperature with shaking for 3 hours to one night. Then the mixture was filtered by a 200 mesh filter. The stain liquid was obtained like this.) was mixed with the precipitated apatite, and the mixture was left to stand for 10 to 15 minutes, and then the mixture was separated by centrifugation (2,500 rpm, 2 minutes) to remove a supernatant. Then, after centrifugation, 20 mL of artificial saliva (20 mM HEPES-KOH pH 7.0, 1.5 mM CaCl2 and 0.9 mM KH2PO4) was added into the precipitated apatite, and the mixture was left to stand for 10 to 15 minutes, and then the mixture was separated by centrifugation (2,500 rpm, 2 minutes). After removal of a supernatant from the mixture, the precipitated apatite was dried.
20 mg of the tea-stained dry apatite is weighed, and 0.3 mL of solution was added thereto, which contains H2O2 at various concentrations and, as appropriate, various phosphate polymers, NaOH and other substances, and then the mixture was left to stand at a certain temperature for a certain time. Then the apatite was precipitated by centrifugation (3,000×g, 15 seconds), and a supernatant was removed from the mixture, and then the apatite was mixed well with 1 mL of water to wash. Further, subsequent washing procedure was repeated four times. After that, the apatite was suspended in 200 μL of water, and the suspension was poured into a well of a 96 well microtiter plate. The 96 well microtiter plate was scanned from the bottom by a scanner (Epson GT8300). The image was inverted to be negative, and brightness analysis was performed by means of imageJ (free software), and then the residual ratio of stain was calculated.

Row | SMILES | Residual ratio of stain (3.5% H2O2, 0% ultraphosphate, pH 7.5, 42 °C, 10 min) [%] | Residual ratio of stain (3.5% H2O2, 0% ultraphosphate, pH 7.5, 42 °C, 30 min) [%] | Residual ratio of stain (3.5% H2O2, 0% ultraphosphate, pH 7.5, 42 °C, 60 min) [%] | Residual ratio of stain (3.5% H2O2, 0% ultraphosphate, pH 7.5, 42 °C, 180 min) [%] | Residual ratio of stain (3.5% H2O2 alone, alkaline (1), pH 11.6, 45 °C, 30 min) [%] | Residual ratio of stain (20% hydrogen peroxide under alkaline condition, 30 minutes treatment) [%] | Residual ratio of stain (15% carbamide peroxide alone, NaOH 0 N, pH 7.0, 45 °C, 30 min) [%] | Residual ratio of stain (15% carbamide peroxide alone, NaOH 0 N, pH 7.0, 45 °C, 60 min) [%] | Residual ratio of stain (15% carbamide peroxide alone, NaOH 1 N, pH 11.4, 45 °C, 30 min) [%] | Residual ratio of stain (15% carbamide peroxide alone, NaOH 1 N, pH 11.4, 45 °C, 60 min) [%] | Residual ratio of stain (30% carbamide peroxide alone, NaOH 0 N, pH 7.1, 45 °C, 60 min) [%] | Residual ratio of stain (30% carbamide peroxide alone, NaOH 1 N, pH 10.9, 45 °C, 30 min) [%] | Residual ratio of stain (30% carbamide peroxide alone, NaOH 1 N, pH 10.9, 45 °C, 60 min) [%] | Residual ratio of stain (highest whitening effect) (carbamide peroxide only, 30%, alkaline condition, treatment time 60 minutes (so in the source)) [%]
1 | OO [hydrogen peroxide] | 98.15 | 96.80 | 94.89 | 88.78 | 49.23 | 40.08 |  |  |  |  |  |  |  | 
2 | NC(N)=O.OO [carbamide peroxide] |  |  |  |  |  |  | 89.86 | 87.73 | 27.69 | 30.39 | 60.96 | 19.01 | 20.22 | 19.01
